Where two headings read alike, the source gives them in different places. Some results are limits rather than exact numbers.

Here are results for 23 compounds from patent publication US20220204476A1, “RNA VIRUS INHIBITOR COMPOUNDS AND USES THEREOF” (The Governors of the University of Alberta, priority 2020, published 2022).

Assay [1] addresses SARS-CoV-2 3CLP (Severe acute respiratory syndrome coronavirus 2, UniProt P0DTD1). As to the kind of experiment: SARS-CoV-2 3CLP inhibition, FRET-based cleavage assay. Type of assay: biochemical. Particulars: 100 μM substrate, 37° C., 10 min incubation, pH 7.8.
For assay [2], the system named is SARS-CoV-2. As to the kind of experiment: SARS-CoV-2 in vitro plaque reduction assay in Vero E6 cells. Particulars: plaques counted after 48 h, >5 μM = did not reduce plaque numbers by half at 10 μM, read-out: SARS-CoV-2 Antiviral EC50. Type of assay: cell-based.
[3] abbreviates: 80 nM SARS-CoV-2 3CLP, read-out: 3CL Protease IC50.
Setting [4] is: Severe acute respiratory syndrome coronavirus 2, Vero C1008, MOI 0.0001 pfu/cell.
[5] abbreviates: 3CL Protease IC50, 80 nM SARS-CoV-2 3CLP.

In the case of `CC(C)C[C@H](NCC1Cc2ccccc2O1)C(=O)N[C@H](C#N)C[C@@H]1CCCNC1=O` (single isomer, unassigned) [Compound 96], the IC50 (in general, the midpoint of a concentration-inhibition curve) in assay [1] (setting [3]) was 46000 nM. Besides, the EC50 – broadly, the concentration at which the effect is half-maximal – in assay [2] (setting [4]) is more than 5000 nM.

`CC(C)C[C@H](NCC1Cc2ccccc2O1)C(=O)N[C@H](C#N)C[C@@H]1CCCNC1=O` (single isomer, unassigned) [Compound 97]: the IC50 in assay [1] (setting [3]) was more than 500000 nM. In addition, the EC50 in assay [2] (MOI 0.0001 pfu/cell) was more than 5000 nM.

For the compound `COc1cccc2[nH]c(C(=O)N[C@@H](CC(C)C)C(=O)N[C@@H](C[C@@H]3CCCNC3=O)C(=O)COC(=O)C(C)(C)C)cc12` [Compound 1, (3S)-3-{[N-(4-methoxy-1H-indole-2-carbonyl)-L-leucyl]amino}-2-oxo-4-[(3S)-2-oxopiperidin-3-yl]butyl 2,2-dimethylpropanoate], the IC50 in assay [1] (setting [3]) amounted to 64 nM. For the same compound, in assay [2] (setting [4]), the EC50 was more than 5000 nM.

`COc1cccc2[nH]c(C(=O)N[C@@H](CC(C)C)C(=O)N[C@@H](C[C@@H]3CCCNC3=O)C(=O)COC(=O)c3ccccc3)cc12` [Compound 2, (3S)-3-{[N-(4-methoxy-1H-indole-2-carbonyl)-L-leucyl]amino}-2-oxo-4-[(3S)-2-oxopiperidin-3-yl]butyl benzoate]: in assay [1] (setting [3]), the IC50 is 64 nM. Also, the EC50 in assay [2] (setting [4]) is more than 5000 nM.

In the case of `COc1cccc2[nH]c(C(=O)N[C@@H](CC(C)C)C(=O)N[C@@H](C[C@@H]3CCCNC3=O)C(=O)COC(=O)c3ccccn3)cc12` [Compound 3, (3S)-3-{[N-(4-methoxy-1H-indole-2-carbonyl)-L-leucyl]amino}-2-oxo-4-[(3S)-2-oxopiperidin-3-yl]butyl pyridine-2-carboxylate], the IC50 in assay [1] (setting [5]) was determined as 130 nM. Further, the EC50 in assay [2] (setting [4]) was more than 5000 nM.

With `COc1cccc2[nH]c(C(=O)N[C@@H](CC(C)C)C(=O)N[C@@H](C[C@@H]3CCCNC3=O)C(=O)COC(=O)c3cccnc3)cc12` [Compound 4, (3S)-3-{[N-(4-methoxy-1H-indole-2-carbonyl)-L-leucyl]amino}-2-oxo-4-[(3S)-2-oxopiperidin-3-yl]butyl pyridine-3-carboxylate], the IC50 in assay [1] (setting [3]) worked out at 4 nM. Also, the concentration giving a half-maximal response (EC50) in assay [2] (setting [4]) was more than 5000 nM.

As for `COc1cccc2[nH]c(C(=O)N[C@@H](CC(C)C)C(=O)N[C@@H](C[C@@H]3CCCNC3=O)C(=O)COC(=O)c3c(F)c(F)c(F)c(F)c3F)cc12` [Compound 7, (3S)-3-{[N-(4-methoxy-1H-indole-2-carbonyl)-L-leucyl]amino}-2-oxo-4-[(3S)-2-oxopiperidin-3-yl]butyl pentafluorobenzoate], the EC50 in assay [2] (setting [4]) is more than 5000 nM.

As to `COc1cccc2[nH]c(C(=O)N[C@@H](CC(C)C)C(=O)N[C@@H](C[C@@H]3CCCNC3=O)C(=O)COC(=O)c3ccncc3)cc12` [Compound 8, (3S)-3-{[N-(4-methoxy-1H-indole-2-carbonyl)-L-leucyl]amino}-2-oxo-4-[(3S)-2-oxopiperidin-3-yl]butyl pyridine-4-carboxylate], in assay [2] (setting [4]), the EC50 is more than 5000 nM.

`COc1cccc2[nH]c(C(=O)N[C@@H](CC(C)C)C(=O)N[C@@H](C[C@@H]3CCCNC3=O)C(=O)COC(=O)C3(C)COC(C)(C)OC3)cc12` [Compound 9, (3S)-3-{[N-(4-methoxy-1H-indole-2-carbonyl)-L-leucyl]amino}-2-oxo-4-[(3S)-2-oxopiperidin-3-yl]butyl 2,2,5-trimethyl-1,3-dioxane-5-carboxylate]: the IC50 in assay [1] (setting [3]) came to 55 nM. For the same compound, in assay [2] (setting [4]), the EC50 is more than 5000 nM.

With `COc1cccc2[nH]c(C(=O)N[C@@H](CC(C)C)C(=O)N[C@@H](C[C@@H]3CCCNC3=O)C(=O)COC(=O)c3cccnc3C(F)(F)F)cc12` [Compound 10, (3S)-3-{[N-(4-methoxy-1H-indole-2-carbonyl)-L-leucyl]amino}-2-oxo-4-[(3S)-2-oxopiperidin-3-yl]butyl 2-(trifluoromethyl)pyridine-3-carboxylate], in assay [1] (setting [3]), the IC50 amounted to 52 nM. Moreover, the EC50 in assay [2] (setting [4]) is more than 5000 nM.

Consider `COc1cccc2[nH]c(C(=O)N[C@@H](CC(C)C)C(=O)N[C@@H](C[C@@H]3CCCNC3=O)C(=O)COC(=O)c3ccc(C(C)(C)C)nc3)cc12` [Compound 11, (3S)-3-{[N-(4-methoxy-1H-indole-2-carbonyl)-L-leucyl]amino}-2-oxo-4-[(3S)-2-oxopiperidin-3-yl]butyl 6-tert-butylpyridine-3-carboxylate], for which the IC50 in assay [1] (setting [3]) was found to be 19 nM. In assay [2] (setting [4]), the EC50 is more than 5000 nM.

With `COc1cccc2[nH]c(C(=O)N[C@@H](CC(C)C)C(=O)N[C@@H](C[C@@H]3CCCNC3=O)C(=O)COC(=O)C3(C#N)CC3)cc12` [Compound 12, (3S)-3-{[N-(4-methoxy-1H-indole-2-carbonyl)-L-leucyl]amino}-2-oxo-4-[(3S)-2-oxopiperidin-3-yl]butyl 1-cyanocyclopropane-1-carboxylate], the IC50 in assay [1] (setting [3]) is 16 nM. Further, the EC50 in assay [2] (setting [4]) is more than 5000 nM.

On to `COc1cccc2[nH]c(C(=O)N[C@@H](CC(C)C)C(=O)N[C@@H](C[C@@H]3CCCNC3=O)C(=O)COC(=O)C(C)(C)C#N)cc12` [Compound 14, (3S)-3-{[N-(4-methoxy-1H-indole-2-carbonyl)-L-leucyl]amino}-2-oxo-4-[(3S)-2-oxopiperidin-3-yl]butyl 2-cyano-2-methylpropanoate], for which, in assay [1] (setting [3]), the concentration for half-maximal inhibition (IC50) came out at 22 nM. For the same compound, the EC50 in assay [2] (setting [4]) is more than 5000 nM.

For the compound `COc1cccc2[nH]c(C(=O)N[C@@H](CC(C)C)C(=O)N[C@@H](C[C@@H]3CCCNC3=O)C(=O)COC(=O)C3(C(F)(F)F)CC3)cc12` [Compound 15, (3S)-3-{[N-(4-methoxy-1H-indole-2-carbonyl)-L-leucyl]amino}-2-oxo-4-[(3S)-2-oxopiperidin-3-yl]butyl 1-(trifluoromethyl)cyclopropane-1-carboxylate], the IC50 in assay [1] (setting [3]) was determined as 41 nM. In assay [2] (setting [4]), the EC50 is more than 5000 nM.

In assay [1] (setting [5]), `COc1cccc2[nH]c(C(=O)N[C@@H](CC(C)C)C(=O)N[C@@H](C[C@@H]3CCCNC3=O)C(=O)COC(=O)C3(C)OCCCO3)cc12` [Compound 16, (3S)-3-{[N-(4-methoxy-1H-indole-2-carbonyl)-L-leucyl]amino}-2-oxo-4-[(3S)-2-oxopiperidin-3-yl]butyl 2-methyl-1,3-dioxane-2-carboxylate] showed an IC50 of 13 nM. Also, in assay [2] (setting [4]), the EC50 is more than 5000 nM.

With `CC(C)C[C@H](NC(=O)C1CCCC1)C(=O)N[C@@H](C[C@@H]1CCCNC1=O)C(=O)COC(=O)c1cccnc1` [Compound 17, (3S)-3-{[N-(cyclopentanecarbonyl)-L-leucyl]amino}-2-oxo-4-[(3S)-2-oxopiperidin-3-yl]butyl pyridine-3-carboxylate], the half-maximal inhibitory concentration (IC50) in assay [1] (setting [3]) turned out to be 4990 nM. The EC50 in assay [2] (setting [4]) was more than 5000 nM.

Turning to `COc1cccc2[nH]c(C(=O)N[C@@H](CC(C)C)C(=O)N[C@@H](C[C@@H]3CCCNC3=O)C(=O)COC(=O)C3(C#N)CCCC3)cc12` [Compound 19, (3S)-3-{[N-(4-methoxy-1H-indole-2-carbonyl)-L-leucyl]amino}-2-oxo-4-[(3S)-2-oxopiperidin-3-yl]butyl 1-cyanocyclopentane-1-carboxylate], in assay [1] (setting [3]), the IC50 was 26 nM. For the same compound, the half-maximal effective concentration (EC50) in assay [2] (setting [4]) was more than 5000 nM.

Turning to `COc1cccc2[nH]c(C(=O)N[C@@H](CC(C)C)C(=O)N[C@@H](C[C@@H]3CCCNC3=O)C(=O)COC(=O)C3(C(F)(F)F)CCCCC3)cc12` [Compound 20, (3S)-3-{[N-(4-methoxy-1H-indole-2-carbonyl)-L-leucyl]amino}-2-oxo-4-[(3S)-2-oxopiperidin-3-yl]butyl 1-(trifluoromethyl)cyclohexane-1-carboxylate], the IC50 in assay [1] (setting [3]) came to 86 nM. Moreover, in assay [2] (setting [4]), the EC50 is 710 nM.

In assay [1] (setting [5]), `COc1cccc2[nH]c(C(=O)N[C@@H](CC(C)C)C(=O)N[C@@H](C[C@@H]3CCCNC3=O)C(=O)COC(=O)c3c(C)cc(C)nc3C)cc12` [Compound 23, (3S)-3-{[N-(4-methoxy-1H-indole-2-carbonyl)-L-leucyl]amino}-2-oxo-4-[(3S)-2-oxopiperidin-3-yl]butyl 2,4,6-trimethylpyridine-3-carboxylate] had an IC50 of 36 nM.

For the compound `COc1cccc2[nH]c(C(=O)N[C@@H](CC(C)C)C(=O)N[C@H](C#N)C[C@@H]3CCNC3=O)cc12` [Compound 24, N-[(2S)-1-({(1S)-1-cyano-2-[(3S)-2-oxopyrrolidin-3-yl]ethyl}amino)-4-methyl-1-oxopentan-2-yl]-4-methoxy-1H-indole-2-carboxamide], the EC50 in assay [2] (setting [4]) is more than 5000 nM.

In the case of `COc1cccc2[nH]c(C(=O)N[C@@H](CC(C)C)C(=O)N[C@@H](C[C@@H]3CCNC3=O)C(=O)COC(=O)c3c(C(F)(F)F)cc(C)nc3C)cc12` [Compound 26, (3S)-3-{[N-(4-methoxy-1H-indole-2-carbonyl)-L-leucyl]amino}-2-oxo-4-[(3S)-2-oxopyrrolidin-3-yl]butyl 2,6-dimethyl-4-(trifluoromethyl)pyridine-3-carboxylate], the IC50 in assay [1] (setting [3]) was 17 nM.

Regarding `COc1cccc2[nH]c(C(=O)N[C@@H](CC(C)C)C(=O)N[C@@H](C[C@@H]3CCCNC3=O)C(=O)COC(=O)c3c(C)nc(C)nc3C)cc12` [Compound 72, 3-{[N-(4-methoxy-1H-indole-2-carbonyl)leucyl]amino}-2-oxo-4-(2-oxopiperidin-3-yl)butyl 2,4,6-trimethylpyrimidine-5-carboxylate], in assay [1] (setting [3]), the IC50 was 22 nM.

Turning to `[2H]C1([2H])CC[C@@H](C[C@@H](C#N)NC(=O)[C@H](CC(C)(C)C)NC(=O)c2cc3c(OC)cccc3[nH]2)C(=O)N1` [Compound 104, N-[(2S)-1-({(1S)-1-cyano-2-[(3S)-2-oxo(6,6-d2)piperidin-3-yl]ethyl}amino)-4,4-dimethyl-1-oxopentan-2-yl]-4-methoxy-1H-indole-2-carboxamide], the concentration giving a half-maximal response (EC50) in assay [2] (setting [4]) is more than 5000 nM.
